According to patent US20190167716A9, “Use of Electrolyzed Water for Treatment and Prevention of Common Livestock Diseases and Conditions, Including PRRS” (priority 2013, published 2019):

Test system: streptococcus
Test: Fog test in bi-room swine confinement infected with streptococcus
Type: in vivo
Conditions: both rooms after a course of R-pen; recurred 10 days later in the control room
Experimental: A test was conducted in a 70′×280′ bi-room configuration swine confinement in a wean to finish operation infected with streptococcus symptoms and showing severe symptoms. The swine confinement included a common effluent pit with center dividing wall and pit level equalization cutouts at the base. Each room included a standard layout with […] and a 24 inch gated alleyway. Capacity was 2480 head, each room was 70 feet by 140 feet; one room was used as the test room to receive the electrolyzed water treatment, the other as a control. Two high pressure lines, centered through the barn at 12 inches below the ceiling, were used to deliver the electrolyzed water. The water was delivered via 60 nozzles in the treatment room, rated at 0.020 gallons per minute, two for each pen, at 1000 psi. The output of fog or mist to the room was 1.2 gallon per minute, delivered by 1000 psi 3 gpm 2 horsepower pump, actuated by a preset timer. The fog was administered for about 1 minute, each of four times a day at generally equally spaced intervals. Total was about 4.8 gallons per 24 hour period.
Both rooms were filled Oct. 17, 2013. Treatment began 1 week later and continued for 15 weeks. […] The death report, per room per week during the 15 week trial was as follows: […]

## CC1(C)S[C@@H]2[C@H](NC(=O)Cc3ccccc3)C(=O)N2[C@H]1C(=O)[O-].[K+] [R-pen]
  strep symptoms: decrease in strep symptoms
